The source of these data is patent publication EP4692071A1, “PHOTOCHROMIC COMPOUND, NAPHTHOL DERIVATIVE, CURABLE COMPOSITION, OPTICAL ARTICLE, LENS, AND EYEGLASS” (TOKUYAMA CORPORATION, priority 2023, dated 2024).

Structures are written as SMILES.

A short description of one data set: Maximum absorption wavelength (λmax) after color development, spectrophotometer MCPD3000. To be noted: binder sheet (binder method), urethaneurea resin photochromic layer between polycarbonate sheets, 0.25 mmol per 100 parts by mass resin. In kind it is physicochemical. The method in brief: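 Read-out: absorbance at λmax, multichannel photodetector spectrophotometer. Colour density = ε(240) − ε(0), 240 s light, 23°C. τ1/2 = time for ε(240) − ε(0) to halve after light off. Residual rate compares density before and after 90 h xenon weathering.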
Regarding `COc1ccc(C2(c3ccc(N4CCOCC4)cc3)C=Cc3c4c(c5cc(N6CCOc7ccccc76)c(C)cc5c3O2)-c2ccc(OC)cc2C4(CCCCF)CCCCF)cc1` (stereo not drawn) [Example 47 Formula (102)], the “Maximum absorption wavelength (nm)” value was found to be 521 nm.

Turning to `COc1ccc(C2(c3ccc(OC)cc3)C=Cc3c4c(c5cc(N6CCc7ccccc7C6)c(OC)cc5c3O2)-c2ccccc2C4(C)C)cc1` [Formula (F), reference compound], the “Maximum absorption wavelength (nm)” value turned out to be 481 nm.

In the case of `CCCOc1ccc(C2(c3ccc(OCCC)cc3)C=Cc3c4c(c5cc(N(CCOC)c6ccccc6)c(OC)cc5c3O2)-c2ccccc2C42CCCCCCC2)cc1` [Example 6 Formula (47)], the “Maximum absorption wavelength (nm)” value is 499 nm.

Staying with this data set, now noted: photochromic laminate by coating method, 40 µm photochromic layer on thiourethane lens, 0.25 mmol compound per 100 g monomers.
For `COc1ccc(C2(c3ccc(N4CCOCC4)cc3)C=Cc3c4c(c5cc(N6CCOc7ccccc76)c(C)cc5c3O2)-c2ccc(OC)cc2C4(CCCCF)CCCCF)cc1` (stereo not drawn) [Example 47 Formula (102)], the “Maximum absorption wavelength (nm)” value came out at 521 nm.

`COc1ccc(C2(c3ccc(OC)cc3)C=Cc3c4c(c5cc(N6CCc7ccccc7C6)c(OC)cc5c3O2)-c2ccccc2C4(C)C)cc1` [Formula (F), reference compound]: the “Maximum absorption wavelength (nm)” value stood at 481 nm.

On to `CCCOc1ccc(C2(c3ccc(OCCC)cc3)C=Cc3c4c(c5cc(N(CCOC)c6ccccc6)c(OC)cc5c3O2)-c2ccccc2C42CCCCCCC2)cc1` [Example 6 Formula (47)], for which the “Maximum absorption wavelength (nm)” value is reported as 499 nm.

The nature of the next data set: 23°C color optical density (A23): absorbancy difference ε(240)-ε(0) after 240 s light irradiation at 23°C. The data set is classed as physicochemical. The following applies: binder sheet (binder method), 240 s irradiation. The method in brief:
(§1)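 Photochromic plastic lens samples were irradiated for 240 s at 23°C, and colour density was taken as the absorbance change at the absorption maximum. Fading half-life was timed from the end of irradiation until that absorbance change fell by half. Durability compared colour density before and after xenon-lamp ageing.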
For `COc1ccc(C2(c3ccc(N4CCOCC4)cc3)C=Cc3c4c(c5cc(N6CCOc7ccccc76)c(C)cc5c3O2)-c2ccc(OC)cc2C4(CCCCF)CCCCF)cc1` (stereo not drawn) [Example 47 Formula (102)], the “A23 (-)” value is on record as 1.27 -.

Take `COc1ccc(C2(c3ccc(OC)cc3)C=Cc3c4c(c5cc(N6CCc7ccccc7C6)c(OC)cc5c3O2)-c2ccccc2C4(C)C)cc1` [Formula (F), reference compound]: the “A23 (-)” value is on record as 1.85 -.

In the case of `CCCOc1ccc(C2(c3ccc(OCCC)cc3)C=Cc3c4c(c5cc(N(CCOC)c6ccccc6)c(OC)cc5c3O2)-c2ccccc2C42CCCCCCC2)cc1` [Example 6 Formula (47)], the “A23 (-)” value is on record as 1.37 -.

The data set is the same for the next values; noted with them: photochromic laminate by coating method, 240 s irradiation, at the maximum absorption wavelength.
For `COc1ccc(C2(c3ccc(N4CCOCC4)cc3)C=Cc3c4c(c5cc(N6CCOc7ccccc76)c(C)cc5c3O2)-c2ccc(OC)cc2C4(CCCCF)CCCCF)cc1` (stereo not drawn) [Example 47 Formula (102)], the “A23 (-)” value was 1.25 -.

As for `CCCOc1ccc(C2(c3ccc(OCCC)cc3)C=Cc3c4c(c5cc(N(CCOC)c6ccccc6)c(OC)cc5c3O2)-c2ccccc2C42CCCCCCC2)cc1` [Example 6 Formula (47)], the “A23 (-)” value was 1.34 -.

Still in this data set, the particulars now being: photochromic laminate by coating method, comparative compounds, 240 s irradiation.
As for `COc1ccc(C2(c3ccc(OC)cc3)C=Cc3c4c(c5cc(N6CCc7ccccc7C6)c(OC)cc5c3O2)-c2ccccc2C4(C)C)cc1` [Formula (F), reference compound], the “23°C color optical density (-)” value is on record as 1.81 -.

The nature of a further data set: 35°C color optical density (A35): absorbancy difference ε(240)-ε(0) after 240 s light irradiation at 35°C. The data set is classed as physicochemical. The following applies: binder sheet (binder method), 240 s irradiation. The gist of the method:
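A photochromic cured product was irradiated with light at 35°C for 240 seconds. The 35°C color optical density (A35) was the absorbancy after irradiation {ε(240)} minus the absorbancy without irradiation ε(0), read at the first and second absorption wavelengths. It served as an indicator of color optical density.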
`COc1ccc(C2(c3ccc(N4CCOCC4)cc3)C=Cc3c4c(c5cc(N6CCOc7ccccc76)c(C)cc5c3O2)-c2ccc(OC)cc2C4(CCCCF)CCCCF)cc1` (stereo not drawn) [Example 47 Formula (102)]: the “A35 (-)” value is 0.84 -.

On to `COc1ccc(C2(c3ccc(OC)cc3)C=Cc3c4c(c5cc(N6CCc7ccccc7C6)c(OC)cc5c3O2)-c2ccccc2C4(C)C)cc1` [Formula (F), reference compound], for which the “A35 (-)” value is 1.30 -.

`CCCOc1ccc(C2(c3ccc(OCCC)cc3)C=Cc3c4c(c5cc(N(CCOC)c6ccccc6)c(OC)cc5c3O2)-c2ccccc2C42CCCCCCC2)cc1` [Example 6 Formula (47)]: the “A35 (-)” value is 0.97 -.

The same data set, now with this note: photochromic laminate by coating method, 240 s irradiation.
As to `COc1ccc(C2(c3ccc(N4CCOCC4)cc3)C=Cc3c4c(c5cc(N6CCOc7ccccc76)c(C)cc5c3O2)-c2ccc(OC)cc2C4(CCCCF)CCCCF)cc1` (stereo not drawn) [Example 47 Formula (102)], the “A35 (-)” value is given as 0.83 -.

For the compound `CCCOc1ccc(C2(c3ccc(OCCC)cc3)C=Cc3c4c(c5cc(N(CCOC)c6ccccc6)c(OC)cc5c3O2)-c2ccccc2C42CCCCCCC2)cc1` [Example 6 Formula (47)], the “A35 (-)” value was 0.95 -.

Staying with this data set, now noted: photochromic laminate by coating method, comparative compounds, 240 s irradiation.
Consider `COc1ccc(C2(c3ccc(OC)cc3)C=Cc3c4c(c5cc(N6CCc7ccccc7C6)c(OC)cc5c3O2)-c2ccccc2C4(C)C)cc1` [Formula (F), reference compound], for which the “35°C color optical density (-)” value is given as 1.28 -.

Another data set is described as follows: High-temperature color development rate (A35/A23×100), temperature dependency. The data set is classed as physicochemical. The following applies: binder sheet (binder method). The gist of the method:
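Color optical density was taken as the absorbance after 240 seconds of light irradiation, ε(240), minus the absorbance without irradiation, ε(0), at the absorption maximum. It was measured at 23°C (A23) and at 35°C (A35), and the ratio A35/A23×100 served as the high-temperature color development rate, showing temperature dependency.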
For `COc1ccc(C2(c3ccc(N4CCOCC4)cc3)C=Cc3c4c(c5cc(N6CCOc7ccccc76)c(C)cc5c3O2)-c2ccc(OC)cc2C4(CCCCF)CCCCF)cc1` (stereo not drawn) [Example 47 Formula (102)], the “A35/A23 *100 (%)” value is listed as 66%.

As to `COc1ccc(C2(c3ccc(OC)cc3)C=Cc3c4c(c5cc(N6CCc7ccccc7C6)c(OC)cc5c3O2)-c2ccccc2C4(C)C)cc1` [Formula (F), reference compound], the “A35/A23 *100 (%)” value stood at 70%.

With `CCCOc1ccc(C2(c3ccc(OCCC)cc3)C=Cc3c4c(c5cc(N(CCOC)c6ccccc6)c(OC)cc5c3O2)-c2ccccc2C42CCCCCCC2)cc1` [Example 6 Formula (47)], the “A35/A23 *100 (%)” value is reported as 71%.

The data set is the same for the next values; noted with them: photochromic laminate by coating method.
Take `COc1ccc(C2(c3ccc(N4CCOCC4)cc3)C=Cc3c4c(c5cc(N6CCOc7ccccc76)c(C)cc5c3O2)-c2ccc(OC)cc2C4(CCCCF)CCCCF)cc1` (stereo not drawn) [Example 47 Formula (102)]: the “A35/A23 *100 (%)” value came out at 66%.

For the compound `CCCOc1ccc(C2(c3ccc(OCCC)cc3)C=Cc3c4c(c5cc(N(CCOC)c6ccccc6)c(OC)cc5c3O2)-c2ccccc2C42CCCCCCC2)cc1` [Example 6 Formula (47)], the “A35/A23 *100 (%)” value was 71%.

The same data set, now with this note: photochromic laminate by coating method, comparative compounds; corresponds to A35/A23×100.
For the compound `COc1ccc(C2(c3ccc(OC)cc3)C=Cc3c4c(c5cc(N6CCc7ccccc7C6)c(OC)cc5c3O2)-c2ccccc2C4(C)C)cc1` [Formula (F), reference compound], the “Temperature change rate (%)” value was 71%.

A short description of the next data set: Residual rate (A90/A0×100) after 90 h accelerated deterioration in xenon weather meter X25, color developing durability. The data set is classed as physicochemical. To be noted: binder sheet (binder method); xenon weather meter 90 hours. The gist of the method: as §1
As to `COc1ccc(C2(c3ccc(N4CCOCC4)cc3)C=Cc3c4c(c5cc(N6CCOc7ccccc76)c(C)cc5c3O2)-c2ccc(OC)cc2C4(CCCCF)CCCCF)cc1` (stereo not drawn) [Example 47 Formula (102)], the “Residual rate (%)” value came out at 88%.

With `COc1ccc(C2(c3ccc(OC)cc3)C=Cc3c4c(c5cc(N6CCc7ccccc7C6)c(OC)cc5c3O2)-c2ccccc2C4(C)C)cc1` [Formula (F), reference compound], the “Residual rate (%)” value came to 64%.

Consider `CCCOc1ccc(C2(c3ccc(OCCC)cc3)C=Cc3c4c(c5cc(N(CCOC)c6ccccc6)c(OC)cc5c3O2)-c2ccccc2C42CCCCCCC2)cc1` [Example 6 Formula (47)], for which the “Residual rate (%)” value stood at 94%.

Staying with this data set, now noted: photochromic laminate by coating method; xenon weather meter 90 hours.
`COc1ccc(C2(c3ccc(N4CCOCC4)cc3)C=Cc3c4c(c5cc(N6CCOc7ccccc76)c(C)cc5c3O2)-c2ccc(OC)cc2C4(CCCCF)CCCCF)cc1` (stereo not drawn) [Example 47 Formula (102)]: the “Residual rate (%)” value is listed as 73%.

For the compound `COc1ccc(C2(c3ccc(OC)cc3)C=Cc3c4c(c5cc(N6CCc7ccccc7C6)c(OC)cc5c3O2)-c2ccccc2C4(C)C)cc1` [Formula (F), reference compound], the “Residual rate (%)” value is reported as 50%.

Take `CCCOc1ccc(C2(c3ccc(OCCC)cc3)C=Cc3c4c(c5cc(N(CCOC)c6ccccc6)c(OC)cc5c3O2)-c2ccccc2C42CCCCCCC2)cc1` [Example 6 Formula (47)]: the “Residual rate (%)” value was determined as 80%.
